Source: publication PMC8615647, “Structural Rearrangements of a Dodecameric Ketol-Acid Reductoisomerase Isolated from a Marine Thermophilic Methanogen” (Biomolecules, 2021)

T1: MtKARI (Methanothermococcus thermolithotrophicus, UniProt A0A8X6EH16)
T1 construct: gene ilvC; native full-length class I enzyme purified from M. thermolithotrophicus, no tag; modelled residues 2-330 (Rossmann 2-183, knot 184-330); dodecamer 438 kDa
T1 sequence (A0A8X6EH16 1-330): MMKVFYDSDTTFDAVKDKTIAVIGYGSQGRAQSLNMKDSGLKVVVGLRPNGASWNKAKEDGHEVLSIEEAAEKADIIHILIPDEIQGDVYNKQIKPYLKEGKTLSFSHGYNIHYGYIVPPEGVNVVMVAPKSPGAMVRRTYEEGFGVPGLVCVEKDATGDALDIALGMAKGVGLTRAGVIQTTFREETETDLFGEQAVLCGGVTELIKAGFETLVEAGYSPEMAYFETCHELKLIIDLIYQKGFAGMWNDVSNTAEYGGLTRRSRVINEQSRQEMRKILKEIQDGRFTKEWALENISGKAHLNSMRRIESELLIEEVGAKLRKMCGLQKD

B1: Ketol-acid reductoisomerase from Methanothermococcus thermolithotrophicus (enzyme, UniProt A0A8X6EH16 1-330, looked up)
chain: T1 sequence (A0A8X6EH16 1-330)
notes: ketol-acid reductoisomerase (EC 1.1.1.86), class I, of Methanothermococcus thermolithotrophicus DSM 2095; native enzyme; model with Rossmann domain (2-183) and knot domain (184-330); stretch 47-53 is printed as LRPNGAS; Native protein without tags, identified by MALDI-TOF-MS; The crystals held NADP and Mg2+ (close state) or NADP and tartrate (open state); also called MtKARI; KARI; source: …

What was measured:
[1] = target: T1, MtKARI; assay: X-ray crystallography; format: binding; conditions: open state, 2.2 A; crystal soaked with 50 mM L-tartrate, 20 mM NADP, 50 mM MgCl2; Mg2+-free, pH 6.5; substrate analogue at the nicotinamide site
[2] = target: the molecule itself; assay: native gel or EMSA; hrCN-PAGE, 5 to 15% gradient gel, 2 ug enriched MtKARI; cathode buffer with 0.05% sodium deoxycholate and 0.01% dodecyl maltoside, pH 7

Row | Molecule | X-ray crystallography [1] | stoichiometry N [2]
1 | O=C(O)[C@H](O)[C@@H](O)C(=O)O [L-tartrate] | tartrate takes the vacant position of the nicotinamide group of NADPH and is loosely bound | 
2 | B1 |  | 12
